Assay results published in US12084437B2, “Halo-substituted piperidines as orexin receptor modulators” (AstraZeneca AB, priority 2016, dated 2024).
pIC50: −log10 of the molar value.

Assays:
OX1 = target: T1, OX1 (Homo sapiens, UniProt O43613); assay: Orexin receptor cell-based functional assay, [Ca2+]i by FLIPR, CHO-OX1 cells; conditions: FLIPR calcium, antagonism of EC90 of [OX], read-out: OXI, IC50
T1 construct: expressed in transfected cells; host or cells: CHO (CHO-OX1)
T1 sequence (O43613 1-425): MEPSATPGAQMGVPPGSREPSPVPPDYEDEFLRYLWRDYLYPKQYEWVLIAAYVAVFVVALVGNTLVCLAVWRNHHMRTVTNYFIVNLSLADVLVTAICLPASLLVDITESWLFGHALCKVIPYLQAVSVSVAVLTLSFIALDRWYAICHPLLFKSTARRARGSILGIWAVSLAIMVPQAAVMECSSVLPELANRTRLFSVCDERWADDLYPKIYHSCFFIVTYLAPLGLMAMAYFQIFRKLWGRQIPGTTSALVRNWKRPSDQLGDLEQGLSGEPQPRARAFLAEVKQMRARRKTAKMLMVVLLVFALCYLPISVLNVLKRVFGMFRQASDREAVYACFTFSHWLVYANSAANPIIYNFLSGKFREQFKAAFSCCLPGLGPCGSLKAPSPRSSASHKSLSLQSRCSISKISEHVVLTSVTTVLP
Method: (§1) Measurement of [Ca^2+]i using a FLIPR: CHO-OX1 or CHO-OX2 cells were seeded into black-walled clear-base 384-well plates (Corning, catalog #3712) at a density of 20,000 cells per well in F12-K medium supplemented with 10% FBS and then incubated in a 5% CO2, 37° C. incubator overnight to reach 90% confluency. The cells were incubated with equal volume of calcium6 loading buffer (Molecular Devices, Inc.) containing 2.5 mM probenecid at 37° C. for 2 h, followed by test compounds (dose-range 0.1 nM-10 μM) for another 30 min. The plates were then placed into a FLIPR (Molecular Devices, Inc.) to monitor fluorescence (λ excitation 488 nm, λ emission 540 nm) before and after the addition of EC90 of [OX].

OX2 = target: T2, OX2 (Homo sapiens, UniProt O43614); assay: Orexin receptor cell-based functional assay, [Ca2+]i by FLIPR, CHO-OX2 cells; conditions: FLIPR calcium, antagonism of EC90 of [OX]
T2 construct: expressed in transfected cells; host or cells: CHO (CHO-OX2)
T2 sequence (O43614 1-444): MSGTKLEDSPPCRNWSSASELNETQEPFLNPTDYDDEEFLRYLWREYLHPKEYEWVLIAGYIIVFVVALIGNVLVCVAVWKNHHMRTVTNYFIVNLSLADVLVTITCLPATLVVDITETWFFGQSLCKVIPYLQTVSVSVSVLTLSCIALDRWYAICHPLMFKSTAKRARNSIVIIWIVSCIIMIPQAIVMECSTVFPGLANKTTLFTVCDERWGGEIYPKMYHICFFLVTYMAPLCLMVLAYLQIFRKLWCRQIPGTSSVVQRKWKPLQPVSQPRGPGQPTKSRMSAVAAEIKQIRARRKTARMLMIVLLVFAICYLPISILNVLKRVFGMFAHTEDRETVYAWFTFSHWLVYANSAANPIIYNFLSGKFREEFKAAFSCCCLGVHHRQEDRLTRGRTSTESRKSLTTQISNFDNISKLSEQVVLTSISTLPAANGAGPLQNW
Method: as §1, with “[OX]. Results for exemplary compounds of Formulae (I), (Ia), (Ib), (II), (IIa), (III), (IIIa), (IV), (IVa), (V), or (Va) are shown in Table 3.” for “[OX].”

pIC50 (OX1) | pIC50 (OX2) | SMILES
< 5.30 | 5.43 | C[C@@H]1CC(F)(F)CN(C(=O)c2nc(C(F)(F)F)ccc2-n2nccn2)[C@@H]1CNc1ccc(C(F)(F)F)cn1 [Compound 203, (3-(2H-1,2,3-triazol-2-yl)-6-(trifluoromethyl)pyridin-2-yl)((2S,3R)-5,5-difluoro-3-methyl-2-(((5-(trifluoromethyl)pyridin-2-yl)amino)methyl)piperidin-1-yl)methanone]
8.40 | < 5.30 | Cc1cccc(-c2cn(C)nc2C(=O)N2CC(F)(F)C[C@@H](C)[C@H]2CNc2ncc(C(F)(F)F)cn2)c1 [Compound 26]
7.72 | < 5.30 | C[C@@H]1CC(F)(F)CN(C(=O)c2nn(C)cc2-c2ccccn2)[C@@H]1CNc1ncc(C(F)(F)F)cn1 [Compound 36]
8.05 | < 5.30 | Cc1ccc(-c2ccccc2)c(C(=O)N2CC(F)(F)C[C@@H](C)[C@H]2CNc2ncc(Cl)cn2)n1 [Compound 52]
7.42 | < 5.30 | C[C@@H]1CC(F)(F)CN(C(=O)c2nn(C)cc2-c2cccnc2)[C@@H]1CNc1cnc(C(F)(F)F)cn1 [Compound 155]
8.70 | < 5.30 | Cc1cccc(-c2cn(C)nc2C(=O)N2CC(F)(F)C[C@@H](C)[C@H]2CNc2cnc(C(F)(F)F)cn2)c1 [Compound 123]
8.05 | < 5.30 | Cc1nc(C(=O)N2CC(F)(F)C[C@@H](C)[C@H]2CNc2ncc(Cl)cn2)c(-c2ccc(F)cc2)s1 [Compound 69]
8.40 | < 5.30 | C[C@@H]1CC(F)(F)CN(C(=O)c2cc(Cl)ccc2-c2nnn(C)n2)[C@@H]1COc1ccc(C(F)(F)F)cn1 [Compound 216, (5-chloro-2-(2-methyl-2H-tetrazol-5-yl)phenyl)((2S,3R)-5,5-difluoro-3-methyl-2-(((5-(trifluoromethyl)pyridin-2-yl)oxy)methyl)piperidin-1-yl)methanone]
7.54 | < 5.30 | C[C@@H]1CC(F)(F)CN(C(=O)c2cc(C#N)ccc2-c2ccc(F)cc2)[C@@H]1CNc1ncc(Cl)cn1 [Compound 53]
7.06 | < 5.30 | CCc1cnc(NC[C@@H]2[C@H](C)CC(F)(F)CN2C(=O)c2nn(C)cc2-c2ccccc2)nc1 [Compound 20]
7.92 | < 5.30 | C[C@@H]1CC(F)(F)CN(C(=O)c2cc(Cl)ccc2-n2nccn2)[C@@H]1CNc1cnc(C(F)(F)F)cn1 [Compound 154]
7.34 | < 5.30 | C[C@@H]1CC(F)(F)CN(C(=O)c2cc(C#N)ccc2-n2nccn2)[C@@H]1CNc1ncc(Cl)cn1 [Compound 15]
8.70 | < 5.30 | C[C@@H]1CC(F)(F)CN(C(=O)c2nn(C)cc2-c2ccccc2)[C@@H]1CNc1cnc(C(F)(F)F)cn1 [Compound 120, ((2S,3R)-5,5-difluoro-3-methyl-2-(((5-(trifluoromethyl)pyrazin-2-yl)amino)methyl)piperidin-1-yl)(1-methyl-4-phenyl-1H-pyrazol-3-yl)methanone]
7.85 | < 5.30 | C[C@@H]1CC(F)(F)CN(C(=O)c2nn(C)cc2-c2cc(Cl)ccn2)[C@@H]1CNc1ncc(C(F)(F)F)cn1 [Compound 227, (4-(4-chloropyridin-2-yl)-1-methyl-1H-pyrazol-3-yl)((2S,3R)-5,5-difluoro-3-methyl-2-(((5-(trifluoromethyl)pyrimidin-2-yl)amino)methyl)piperidin-1-yl)methanone]
8.30 | < 5.30 | Cc1nc(C(=O)N2CC(F)(F)C[C@@H](C)[C@H]2CNc2ncc(C(F)(F)F)cn2)c(-c2ccccn2)s1 [Compound 70]
8.22 | < 5.30 | Cc1ccc(-c2nnn(C)n2)c(C(=O)N2CC(F)(F)C[C@@H](C)[C@H]2CNc2ncc(Cl)cn2)c1 [Compound 9]

pIC50 (OX1) | pIC50 (OX2) | SMILES
8.40 | < 5.30 | Cc1ccc(-c2sc(C)nc2C(=O)N2CC(F)(F)C[C@@H](C)[C@H]2CNc2ncc(C(F)(F)F)cn2)cc1 [Compound 64]
8.10 | < 5.30 | Cc1ccc(-c2nnn(C)n2)c(C(=O)N2CC(F)(F)C[C@@H](C)[C@H]2CNc2ncc(C(F)(F)F)cn2)c1 [Compound 8]
7.25 | < 5.30 | C[C@@H]1CC(F)(F)CN(C(=O)c2nn(C)nc2-c2ccccn2)[C@@H]1CNc1ncc(C(F)(F)F)cn1 [Compound 83]
8.40 | < 5.30 | C[C@@H]1CC(F)(F)CN(C(=O)c2nn(C)cc2-c2ccc(F)cc2)[C@@H]1CNc1ncc(Cl)cn1 [Compound 31]
7.13 | < 5.30 | C[C@@H]1CC(F)(F)CN(C(=O)c2nn(C)cc2-c2cncnc2)[C@@H]1CNc1ncc(C(F)(F)F)cn1 [Compound 230, ((2S,3R)-5,5-difluoro-3-methyl-2-(((5-(trifluoromethyl)pyrimidin-2-yl)amino)methyl)piperidin-1-yl)(1-methyl-4-(pyrimidin-5-yl)-1H-pyrazol-3-yl)methanone]
7.09 | < 5.30 | C[C@@H]1CC(F)(F)CN(C(=O)c2cc(Cl)ccc2-n2ncnn2)[C@@H]1CNc1ncc(C(F)(F)F)cn1 [Compound 4]
8.00 | < 5.30 | Cc1ccc(-c2cn(C)nc2C(=O)N2CC(F)(F)C[C@@H](C)[C@H]2CNc2ncc(C(F)(F)F)cn2)nc1 [Compound 44]
< 6.00 | < 5.30 | C[C@@H]1CC(F)(F)CN(C(=O)c2nn(C)cc2-c2ccc(F)cn2)[C@@H]1CNc1ncc(C(F)(F)F)cn1 [Compound 42]
8.10 | < 5.30 | C[C@@H]1CC(F)(F)CN(C(=O)c2cc(F)ccc2-c2nnn(C)n2)[C@@H]1CNc1ncc(C(F)(F)F)cn1 [Compound 252, ((2S,3R)-5,5-difluoro-3-methyl-2-(((5-(trifluoromethyl)pyrimidin-2-yl)amino)methyl)piperidin-1-yl)(5-fluoro-2-(2-methyl-2H-tetrazol-5-yl)phenyl)methanone]
9.00 | 5.68 | Cc1nc(C(=O)N2CC(F)(F)C[C@@H](C)[C@H]2CNc2ncc(C(F)(F)F)cn2)c(-c2ccccc2F)s1 [Compound 66]
6.22 | < 5.30 | Cc1nc(-c2ccccc2)c(C(=O)N2CC(F)(F)C[C@@H](C)[C@H]2CNc2ncc(C(F)(F)F)cn2)s1 [Compound 48]
8.40 | < 5.30 | C[C@@H]1CC(F)(F)CN(C(=O)c2nn(C)cc2-c2cccc(F)c2)[C@@H]1CNc1ncc(C(F)(F)F)cn1 [Compound 25]
7.21 | < 5.30 | C[C@@H]1CC(F)(F)CN(C(=O)c2cn(C)nc2-c2ccccn2)[C@@H]1CNc1cnc(C(F)(F)F)cn1 [Compound 158]
8.15 | 5.52 | Cc1cccc(-c2sc(C)nc2C(=O)N2CC(F)(F)C[C@@H](C)[C@H]2CNc2ccc(C(F)(F)F)cn2)c1 [Compound 187]
8.40 | 5.38 | Cc1ccc(-c2cn(C)nc2C(=O)N2CC(F)(F)C[C@@H](C)[C@H]2CNc2ccc(C(F)(F)F)cn2)cc1 [Compound 175]
7.52 | < 5.30 | Cc1ccc(-c2ncccn2)c(C(=O)N2CC(F)(F)C[C@@H](C)[C@H]2CNc2ncc(C(F)(F)F)cn2)c1 [Compound 55, ((2S,3R)-5,5-difluoro-3-methyl-2-(((5-(trifluoromethyl)pyrimidin-2-yl)amino)methyl)piperidin-1-yl)(5-methyl-2-(pyrimidin-2-yl)phenyl)methanone]
